Reference: patent publication US20100273789A1, “AMINOACYL PRODRUGS” (BAYER SCHERING PHARMA AKTIENGESELLSCHAFT, priority 2007, published 2010)

Assay: Determination of the solubility
Assay type: physicochemical
Conditions: in water and physiological media
Description: The test substance is suspended in water or dilute hydrochloric acid (pH 4). This suspension is shaken at room temperature for 24 h. After ultracentrifugation at 224 000 g for 30 min, the supernatant is diluted with DMSO and analyzed by HPLC. A two-point calibration plot of the test compound in DMSO is used for quantification.
Agilent 1100 with DAD (G1315A), quat. pump (G1311A), autosampler CTC HTS PAL, degasser (G1322A) and column thermostat (G1316A); column: Zorbax Extend-C18 3.5μ; temperature: 40° C.; mobile phase A: water+5 ml of perchloric acid/liter, mobile phase B: acetonitrile; flow rate: 0.7 ml/min; gradient: 0-0.5 min 98% A, 2% B; ramp 0.5-4.5 min 10% A, 90% B; 4.5-6 min 10% A, 90% B; ramp 6.5-6.7 min 98% A, 2% B; 6.7-7.5 min 98% A, 2% B.

In the case of `O=C(NC[C@H]1CN(c2ccc(N3CCOCC3=O)cc2F)C(=O)O1)c1ccc(Cl)s1` [compound (A), 5-Chloro-N-({(5S)-3-[2-fluoro-4-(3-oxomorpholin-4-yl)phenyl]-2-oxo-1,3-oxazolidin-5-yl}methyl)thiophene-2-carboxamide], the solubility was “limited solubility”.
